In patent US20190161499A1, “PESTICIDALLY ACTIVE 1,2,4-TRIAZOLE DERIVATIVES” (SYNGENTA PARTICIPATIONS AG, priority 2015, published 2019):
Read-outs that look alike come from different tables or passages of the source.

How the values were obtained:
Type in all cases: in vivo
[1] = tested on: Spodoptera littoralis (Egyptian Cotton Leaf Worm); assay: Spodoptera littoralis cotton leaf disc spray test; details: foliar, 72 h, application rate 200 ppm, L1 larvae, 3 days after infestation, read-out: control (at least one of mortality, anti-feedant effect, growth inhibition)
Experimental: Spodoptera littoralis (Egyptian Cotton Leaf Worm)
Cotton leaf discs were placed on agar in 24-well microtiter plates and sprayed with aqueous test solutions prepared from 10,000 ppm DMSO stock solutions. After drying, the leaf discs were infested with five L1 larvae. The samples were assessed for mortality, anti-feedant effect, and growth inhibition in comparison to untreated samples 3 days after infestation. Control of Spodoptera littoralis by a test sample is when at least one of mortality, anti-feedant effect, and growth inhibition is higher than the untreated sample.

[2] = tested on: Diabrotica Balteata (Corn Root Worm); assay: whole plant or invertebrate; details: 96 h, read-out: effect in at least one of the two categories (mortality or growth inhibition)
Experimental: Example B3: Diabrotica Balteata (Corn Root Worm)
Maize sprouts, placed on an agar layer in 24-well microtiter plates were treated with aqueous test solutions prepared from 10,000 ppm DMSO stock solutions by spraying. After drying, the plates were infested with L2 larvae (6 to 10 per well). The samples were assessed for mortality and growth inhibition in comparison to untreated samples 4 days after infestation.

[3] = tested on: Plutella xylostella (Diamond Back Moth); assay: whole plant or invertebrate; details: 120 h, application rate 200 ppm, L2 larvae, 5 days after infestation, read-out: effect in at least one of the two categories (mortality or growth inhibition)
Experimental: Example B2: Plutella xylostella (Diamond Back Moth)
24-well microtiter plates with artificial diet were treated with aqueous test solutions prepared from 10,000 ppm DMSO stock solutions by pipetting. After drying, the plates were infested with L2 larvae (10 to 15 per well). The samples were assessed for mortality and growth inhibition in comparison to untreated samples 5 days after infestation.

[4] = application rate 200 ppm, L2 larvae, 4 days after infestation

SMILES | percent control (mortality, anti-feedant effect or growth inhibition) at 200 ppm [1] [%] | percent effect (mortality or growth inhibition) at 200 ppm [2, 4] [%] | percent effect (mortality or growth inhibition) at 200 ppm [3] [%] | percent effect (mortality or growth inhibition) at 200 ppm [2] [%]
Fc1ccccc1-n1nc(-c2ccc(Cl)cc2)nc1CN1CCC(c2ncccn2)CC1 [Example 1.1, 2-[1-[[5-(4-chlorophenyl)-2-(2-fluorophenyl)-1,2,4-triazol-3-yl]methyl]-4-piperidyl]pyrimidine] | ≥ 80 | ≥ 80 | ≥ 80 | –
Fc1ccccc1-n1nc(-c2ccc(Cl)cn2)nc1CN1CCC(c2ncccn2)CC1 [Example 1.4] | ≥ 80 | ≥ 80 | ≥ 80 | –
Fc1ccccc1-n1nc(-c2ccc(Cl)cc2)nc1CN1CCC(C(F)(F)F)CC1 [Example 1.5] | – | ≥ 80 | – | –
Cc1ccccc1-c1nc(CN2CCC(c3ncccn3)CC2)n(-c2ccccc2F)n1 [Example 1.36] | – | ≥ 80 | – | –
Cc1cccc(-c2nc(CN3CCC(c4ncccn4)CC3)n(-c3ccccc3F)n2)c1 [Example 1.37] | ≥ 80 | ≥ 80 | – | –
NC(=O)C1CCN(Cc2nc(-c3ccc(Cl)cc3)nn2-c2ccccc2F)CC1 [Example 1.47] | ≥ 80 | ≥ 80 | – | –
Clc1ccc(-c2nc(CN3CCC(c4ncccn4)CC3)n(-c3ccc(Cl)c(Cl)c3)n2)cc1 [Example 1.50] | – | ≥ 80 | – | –
Cc1cccc(-n2nc(-c3ccc(Cl)cc3)nc2CN2CCC(c3ncccn3)CC2)c1 [Example 1.51] | – | ≥ 80 | – | –
Cc1ccc(-n2nc(-c3ccc(Cl)cc3)nc2CN2CCC(c3ncccn3)CC2)cc1 [Example 1.52] | ≥ 80 | ≥ 80 | – | –
Clc1ccc(-c2nc(CN3CCC(c4ncccn4)CC3)n(-c3cccc(Br)c3)n2)cc1 [Example 1.57] | – | ≥ 80 | – | –
Clc1ccc(-c2nc(CN3CCC(c4ncccn4)CC3)n(C3CCC3)n2)cc1 [Example 1.58] | – | ≥ 80 | – | –
CC(C)n1nc(-c2ccc(Cl)cc2)nc1CN1CCC(c2ncccn2)CC1 [Example 1.60] | – | ≥ 80 | – | –
Clc1ccc(-c2nc(CN3CCC(c4ncccn4)CC3)n(-c3ccc(Cl)cc3Cl)n2)cc1 [Example 1.65] | ≥ 80 | ≥ 80 | – | –
Clc1ccc(-c2nc(CN3CCC(c4ncccn4)CC3)n(-c3cccc(Cl)c3)n2)cc1 [Example 1.69] | – | ≥ 80 | – | –
Cc1ccc(-n2nc(-c3ccc(Cl)cc3)nc2CN2CCC(c3ncccn3)CC2)cc1C [Example 1.73] | – | ≥ 80 | – | –
Cc1ccc(C)c(-n2nc(-c3ccc(Cl)cc3)nc2CN2CCC(c3ncccn3)CC2)c1 [Example 1.74] | – | ≥ 80 | – | –
COc1cccc(-n2nc(-c3ccc(Cl)cc3)nc2CN2CCC(c3ncccn3)CC2)c1 [Example 1.75] | – | ≥ 80 | – | –
COc1ccc(-n2nc(-c3ccc(Cl)cc3)nc2CN2CCC(c3ncccn3)CC2)cc1 [Example 1.79] | ≥ 80 | ≥ 80 | – | –
Cc1cccc(-n2nc(-c3ccc(Cl)cc3)nc2CN2CCC(c3ncccn3)CC2)c1C [Example 1.82] | ≥ 80 | ≥ 80 | – | –
Clc1ccc(-c2nc(CN3CCC(c4ncccn4)CC3)n(-c3cc(Cl)ccc3Cl)n2)cc1 [Example 1.86] | – | ≥ 80 | – | –
Cc1ccc(-n2nc(-c3ccc(Cl)cc3)nc2CN2CCC(c3ncccn3)CC2)c(C)c1 [Example 1.87] | ≥ 80 | ≥ 80 | – | –
Fc1ccccc1-n1nc(Cc2ccc(Cl)cc2)nc1CN1CCC(c2ncccn2)CC1 [Example 1.91] | ≥ 80 | ≥ 80 | – | –
Cc1ccc(-c2nc(CN3CCC(c4ncccn4)CC3)n(-c3ccccc3F)n2)cc1F [Example 1.92] | ≥ 80 | ≥ 80 | – | –
Fc1ccccc1-n1nc(C2CC2)nc1CN1CCC(c2ncccn2)CC1 [Example 1.93] | – | ≥ 80 | – | –
Fc1ccccc1-n1nc(-c2ccccc2)nc1CN1CCC(c2ncccn2)CC1 [Example 1.94] | ≥ 80 | ≥ 80 | – | –

SMILES | percent control (mortality, anti-feedant effect or growth inhibition) at 200 ppm [1] [%] | percent effect (mortality or growth inhibition) at 200 ppm [2, 4] [%] | percent effect (mortality or growth inhibition) at 200 ppm [3] [%] | percent effect (mortality or growth inhibition) at 200 ppm [2] [%]
Cc1ccc(-c2nc(CN3CCC(c4ncccn4)CC3)n(-c3ccccc3F)n2)cc1 [Example 1.95] | ≥ 80 | ≥ 80 | – | –
Fc1ccccc1-n1nc(-c2cccs2)nc1CN1CCC(c2ncccn2)CC1 [Example 1.96] | – | ≥ 80 | – | –
CCc1nc(CN2CCC(c3ncccn3)CC2)n(-c2ccccc2F)n1 [Example 1.99] | – | ≥ 80 | – | –
CC(C)c1nc(CN2CCC(c3ncccn3)CC2)n(-c2ccccc2F)n1 [Example 1.100] | – | ≥ 80 | – | –
COc1ccc(-c2nc(CN3CCC(c4ncccn4)CC3)n(-c3ccccc3F)n2)cc1 [Example 1.101] | ≥ 80 | ≥ 80 | – | –
Fc1ccccc1-n1nc(-c2ccccn2)nc1CN1CCC(c2ncccn2)CC1 [Example 1.102] | – | ≥ 80 | – | –
Fc1ccccc1-n1nc(-c2ccc(Cl)cc2)nc1CN1CCC(c2ncc[nH]2)CC1 [Example 1.112] | – | ≥ 80 | – | –
Fc1ccccc1-n1nc(-c2ccc(Cl)cc2)nc1CN1CCC(c2ncon2)CC1 [Example 1.113] | ≥ 80 | ≥ 80 | – | –
Fc1ccccc1-n1nc(-c2ccc(Cl)cc2)nc1CN1CCC(c2nccs2)CC1 [Example 1.115] | ≥ 80 | ≥ 80 | – | –
Fc1ccccc1-n1nc(-c2ccc(Cl)cc2)nc1CN1CCC(c2ccncn2)CC1 [Example 1.116] | ≥ 80 | ≥ 80 | – | –
Cn1ccnc1C1CCN(Cc2nc(-c3ccc(Cl)cc3)nn2-c2ccccc2F)CC1 [Example 1.117] | ≥ 80 | ≥ 80 | – | –
Cc1nnc(C2CCN(Cc3nc(-c4ccc(Cl)cc4)nn3-c3ccccc3F)CC2)o1 [Example 1.118] | – | ≥ 80 | – | –
Fc1ccccc1-n1nc(-c2ccc(Cl)cc2)nc1CN1CCC(c2cscn2)CC1 [Example 1.119] | ≥ 80 | ≥ 80 | – | –
Fc1ccccc1-n1nc(-c2ccc(Cl)cc2)nc1CN1CCC(c2ncno2)CC1 [Example 1.121] | – | ≥ 80 | – | –
Cc1ccnc(C2CCN(Cc3nc(-c4ccc(Cl)cc4)nn3-c3ccccc3F)CC2)n1 [Example 1.125] | ≥ 80 | ≥ 80 | – | –
Fc1ccccc1-n1nc(-c2ccc(Cl)cc2)nc1CN1CC=C(c2ccc(Cl)cn2)CC1 [Example 3.1] | – | – | – | ≥ 80
Fc1ccccc1-n1nc(-c2ccc(Cl)cc2)nc1CN1CCC(c2cc(Cl)cc(Cl)c2)(C(F)(F)F)C1 (stereo not drawn) [Example 5.2] | – | – | ≥ 80 | –
Fc1ccccc1-n1nc(-c2ccc(Cl)cc2)nc1CN1CCC2(CC1)CC(C1CC1)=NO2 [Example 5.4] | ≥ 80 | ≥ 80 | – | –
Fc1ccccc1-n1nc(-c2ccc(Cl)cc2)nc1CN1CCC2(CC1)CC(C(F)(F)F)=NO2 [Example 5.5] | ≥ 80 | ≥ 80 | – | –
Fc1ccccc1-n1nc(-c2ccc(Cl)cc2)nc1CN1CCC(c2ncccn2)C1 (stereo not drawn) [Example 5.7] | – | ≥ 80 | ≥ 80 | –
CCC1CCCCN1Cc1nc(-c2ccc(Cl)cc2)nn1-c1ccccc1F (stereo not drawn) [Example 5.16] | – | ≥ 80 | – | –
CCOC(=O)C1CCCN(Cc2nc(-c3ccc(Cl)cc3)nn2-c2ccccc2F)C1 (stereo not drawn) [Example 5.17] | – | ≥ 80 | – | –
CCC1CCCN(Cc2nc(-c3ccc(Cl)cc3)nn2-c2ccccc2F)C1 (stereo not drawn) [Example 5.21] | – | ≥ 80 | – | –
CCOC(=O)C1CCCCN1Cc1nc(-c2ccc(Cl)cc2)nn1-c1ccccc1F (stereo not drawn) [Example 5.22] | – | ≥ 80 | – | –
CC1CCCN1Cc1nc(-c2ccc(Cl)cc2)nn1-c1ccccc1F (stereo not drawn) [Example 5.30] | – | ≥ 80 | – | –
